The values below come from patent US20150197497A1, “SELECTIVE INHIBITORS OF HISTONE DEACETYLASE ISOFORM 6 AND METHODS THEREOF” (DANA-FARBER CANCER INSTITUTE, INC., priority 2011, published 2015).

What is called IC50 is the midpoint of a concentration-inhibition curve.

This assay deals with T1, HDAC6 (Homo sapiens, UniProt Q9UBN7).
T1 construct: Recombinant, full-length HDAC protein (BPS Biosciences) was incubated with fluorophore conjugated substrate; purchased BPS Biosciences
T1 sequence (Q9UBN7 1-1215): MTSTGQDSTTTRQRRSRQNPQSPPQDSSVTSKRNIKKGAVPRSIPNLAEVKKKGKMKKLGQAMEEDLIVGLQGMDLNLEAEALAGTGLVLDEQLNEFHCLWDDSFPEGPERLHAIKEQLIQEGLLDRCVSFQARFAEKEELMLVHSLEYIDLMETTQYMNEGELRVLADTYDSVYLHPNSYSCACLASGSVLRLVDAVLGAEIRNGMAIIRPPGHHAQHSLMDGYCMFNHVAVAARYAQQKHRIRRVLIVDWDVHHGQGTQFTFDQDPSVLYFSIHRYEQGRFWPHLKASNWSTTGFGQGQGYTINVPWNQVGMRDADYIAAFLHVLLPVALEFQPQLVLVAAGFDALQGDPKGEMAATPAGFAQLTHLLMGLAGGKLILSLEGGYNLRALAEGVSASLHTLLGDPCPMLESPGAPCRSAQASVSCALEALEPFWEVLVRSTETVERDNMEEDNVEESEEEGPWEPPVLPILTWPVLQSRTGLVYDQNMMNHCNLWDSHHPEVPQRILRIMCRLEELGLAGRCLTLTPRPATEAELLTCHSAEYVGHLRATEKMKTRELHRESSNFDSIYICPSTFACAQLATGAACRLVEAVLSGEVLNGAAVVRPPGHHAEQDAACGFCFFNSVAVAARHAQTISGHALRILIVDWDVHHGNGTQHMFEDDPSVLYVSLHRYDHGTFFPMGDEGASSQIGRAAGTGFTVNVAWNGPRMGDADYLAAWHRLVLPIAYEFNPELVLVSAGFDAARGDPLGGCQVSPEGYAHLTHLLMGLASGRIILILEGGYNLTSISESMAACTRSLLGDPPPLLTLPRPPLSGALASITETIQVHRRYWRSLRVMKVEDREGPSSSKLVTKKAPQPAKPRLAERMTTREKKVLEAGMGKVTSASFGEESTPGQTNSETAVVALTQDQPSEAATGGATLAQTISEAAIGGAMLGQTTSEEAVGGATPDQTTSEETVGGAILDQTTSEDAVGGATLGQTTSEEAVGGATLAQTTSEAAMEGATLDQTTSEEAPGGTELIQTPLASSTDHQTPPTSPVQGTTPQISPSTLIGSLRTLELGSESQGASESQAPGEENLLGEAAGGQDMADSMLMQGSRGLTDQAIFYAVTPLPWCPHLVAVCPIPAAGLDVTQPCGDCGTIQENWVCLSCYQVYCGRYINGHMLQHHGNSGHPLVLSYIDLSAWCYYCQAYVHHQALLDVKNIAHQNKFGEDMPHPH
As to the kind of experiment: In vitro HDAC enzyme inhibition assay, HDAC6. The assay is classed as biochemical. The settings on record: recombinant full-length HDAC6, substrate MAZ1600 9 μM. How it is done: In vitro Histone Deacetylase enzyme assays were performed using Class I (isoforms: HDAC1, HDAC2, HDAC3 and HDAC8), class IIa (isoforms: HDAC4, HDAC5, HDAC7 and HDAC9) and class IIb (isoform HDAC6).
HDAC activities were determined in vitro with an optimized homogenous assay performed in a 384-well plate. Recombinant, full-length HDAC protein (BPS Biosciences) was incubated with fluorophore conjugated substrate, MAZ1600 and MAZ1675, at Km=[S]. […] Reactions were performed in assay buffer (50 mM HEPES, 100 mM KCl, 0.001% Tween-20, 0.05% BSA, 200 μM tris(2-carboxyethyl)phosphine (TCEP), pH 7.4) and followed for fluorogenic release of 7-amino-4-methylcoumarin from substrate upon deacetylase and trypsin enzymatic activity. Fluorescence measurements were obtained every five minutes using a multilabel plate reader and plate-stacker (Envision; Perkin-Elmer). Each plate was analyzed by plate repeat, and the first derivative within the linear range was imported into analytical software (Spotfire DecisionSite and GraphPad Prism). Replicate experimental data from incubations with inhibitor were normalized to controls.
Consider `O=C(NO)c1ccc(Cn2c(C(F)(F)F)nc3ccccc32)cc1` [A1, N-hydroxy-4-((2-(trifluoromethyl)-1H-benzo[d]imidazol-1-yl)methyl)benzamide], for which the IC50 is 0.472 nM.

`Cc1ccc2c(c1)nc(C(F)(F)F)n2Cc1ccc(C(=O)NO)cc1` [A2, N-hydroxy-4-((5-methyl-2-(trifluoromethyl)-1H-benzo[d]imidazol-1-yl)methyl)benzamide]: the 50% inhibitory concentration (IC50) is 0.306 nM. `O=C(NO)c1ccc(Cn2c(C(F)(F)F)nc3cc(F)ccc32)cc1` [A3, 4-((5-fluoro-2-(trifluoromethyl)-1H-benzo[d]imidazol-1-yl)methyl)-N-hydroxybenzamide]: the IC50 is 0.574 nM. `O=C(NO)c1ccc(Cn2c(C(F)(F)F)nc3cc(Cl)ccc32)cc1` [A4, 4-((5-chloro-2-(trifluoromethyl)-1H-benzo[d]imidazol-1-yl)methyl)-N-hydroxybenzamide]: the IC50 was found to be 1.16 nM. Take `O=C(NO)c1ccc(Cn2c(C(F)(F)F)nc3cc(Br)ccc32)cc1` [A5, 4-((5-bromo-2-(trifluoromethyl)-1H-benzo[d]imidazol-l-yl)methyl)-N-hydroxybenzamide]: the IC50 amounted to 0.31 nM. Take `COc1ccc2c(c1)nc(C(F)(F)F)n2Cc1ccc(C(=O)NO)cc1` [A6, N-hydroxy-4-((5-methoxy-2-(trifluoromethyl)-1H-benzo[d]imidazol-1-yl)methyl)benzamide]: the concentration for half-maximal inhibition (IC50) came to 0.392 nM. In the case of `O=C(NO)c1ccc(Cn2cnc3ccccc32)cc1` [A7], the IC50 worked out at 0.0979 nM.

As for `Cc1ccc2c(c1)ncn2Cc1ccc(C(=O)NO)cc1` [A8, N-hydroxy-4-((5-methyl-1H-benzo[d]imidazol-1-yl)methyl)benzamide], the concentration for half-maximal inhibition (IC50) is 0.381 nM. `O=C(NO)c1ccc(Cn2cnc3cc(F)ccc32)cc1` [A9, 4-((5-fluoro-1H-benzo[d]imidazol-1-yl)methyl)-N-hydroxybenzamide]: the IC50 came out at 0.0663 nM.

As to `O=C(NO)c1ccc(Cn2cnc3cc(Cl)ccc32)cc1` [A10, 4-((5-chloro-1H-benzo[d]imidazol-1-yl)methyl)-N-hydroxybenzamide], the IC50 came out at 0.069 nM.

Regarding `O=C(NO)c1ccc(Cn2cnc3cc(Br)ccc32)cc1` [A11, 4-((5-bromo-1H-benzo[d]imidazol-1-yl)methyl)-N-hydroxybenzamide], the IC50 turned out to be 0.0167 nM. To `COc1ccc2c(c1)ncn2Cc1ccc(C(=O)NO)cc1` [A12, N-hydroxy-4-((5-methoxy-1H-benzo[d]imidazol-1-yl)methyl)benzamide] belongs 0.217 nM; to `O=C(NO)c1ccc(Cn2c(=O)[nH]c3ccccc32)cc1` [B1, N-hydroxy-4-((2-oxo-2,3-dihydro-1H-benzo[d]imidazol-1-yl)methyl)benzamide], 0.0145 nM. `Cc1ccc2c(c1)[nH]c(=O)n2Cc1ccc(C(=O)NO)cc1` [B2, N-hydroxy-4-((5-methyl-2-oxo-2,3-dihydro-1H-benzo[d]imidazol-1-yl)methyl)benzamide]: the IC50 stood at 0.00286 nM. To `O=C(NO)c1ccc(Cn2c(=O)[nH]c3cc(F)ccc32)cc1` [B3, 4-((5-fluoro-2-oxo-2,3-dihydro-1H-benzo[d]imidazol-1-yl)methyl)N-hydroxybenzamide] belongs 0.0216 nM. The result for `O=C(NO)c1ccc(Cn2c(=O)[nH]c3cc(Cl)ccc32)cc1` [B4, 4-((5-chloro-2-oxo-2,3-dihydro-1H-benzo[d]imidazol-1-yl)methyl)-N-hydroxybenzamide] reads 0.0253 nM. Take `O=C(NO)c1ccc(Cn2c(=O)[nH]c3cc(Br)ccc32)cc1` [B5, 4-((5-bromo-2-oxo-2,3-dihydro-1H-benzo[d]imidazol-1-yl)methyl)-N-hydroxybenzamide]: the IC50 stood at 0.0205 nM.

Regarding `O=C(NO)c1ccc(Cn2c(=O)[nH]c3cc(C(F)(F)F)ccc32)cc1` [B6, N-hydroxy-4-((2-oxo-5-(trifluoromethyl)-2,3-dihydro-1H-benzo[d]imidazol-1-yl)methyl)benzamide], the IC50 was determined as 0.00621 nM.

Turning to `COc1ccc2c(c1)[nH]c(=O)n2Cc1ccc(C(=O)NO)cc1` [B7, N-hydroxy-4-((5-methoxy-2-oxo-2,3-dihydro-1H-benzo[d]imidazol-1-yl)methyl)benzamide], the IC50 was determined as 0.0257 nM.

For `O=C(NO)c1ccc(Cn2nnc3ccccc32)cc1` [C1, 4-((1H-benzo[d][1,2,3]triazol-1-yl)methyl)-N-hydroxybenzamide], the IC50 was determined as 0.016 nM.

Regarding `O=C(NO)c1ccc(Cn2nnc3cc(F)ccc32)cc1` [C3, 4-((5-fluoro-1H-benzo[d][1,2,3]triazol-1-yl)methyl)-N-hydroxybenzamide], the IC50 was 0.0263 nM.

As to `O=C(NO)c1ccc(Cn2nnc3cc(Cl)ccc32)cc1` [C4, 4-((5-chloro-1H-benzo[d][1,2,3]triazol-1-yl)methyl)-N-hydroxybenzamide], the IC50 came out at 0.0552 nM. The result for `O=C(NO)c1ccc(Cn2nnc3cc(Br)ccc32)cc1` [C5, 4-((5-bromo-1H-benzo[d][1,2,3]triazol-1-yl)methyl)-N-hydroxybenzamide] reads 0.0258 nM.
